Experimental findings from patent publication US20230357373A1, “METHODS AND COMPOSITIONS FOR […] TREATING FIBROSIS” (Mie University, priority 2019, published 2023) are described below.

For data set [1], the system named is A549 alveolar epithelial cells. Put plainly: Apoptosis assay by flow cytometry (annexin V / propidium iodide) in A549 cells. The data set is classed as cell-based, human. The note with it: for apoptosis of alveolar epithelial cells: 10 μM peptide, 24 h. On the procedure: (§1) The A549 and NHBE cells were cultured in DMEM supplemented with 10% fetal calf serum, 0.03% (w/v) L-glutamine, 100 IU/ml penicillin and 100 μg/ml streptomycin in a humidified, 5% CO2 atmosphere at 37° C. We used A549 cell lines in most experiments because they have higher potential growth and mimic the phenotype of alveolar type II cells more than primary NHBE cells (NPL82, NPL83); and in addition, these primary cells usually easily change phenotype or become senescent after a short period of culture.
(§2) A549 and NBHE cells (4×10^5 cells/well) were seeded into 12-well plates, cultured to sub-confluency, washed and then cultured in serum free medium containing 10% of each bacterial supernatant for 48 h. Non-inoculated hypersaline medium was used as control. The cells were analyzed for apoptosis by flow cytometry (FACScan, BD Biosciences, Oxford, UK) after staining with fluorescein-labelled annexin V and propidium iodide (FITC Annexin V Apoptosis Detection Kit with PI, Biolegend, San Diego, CA). Flow cytometry gating strategy used in the experiments is described in FIGS. 34A-34C. Under physiological conditions, phosphatidylcholine is exposed externally while phosphatidylserine (PS) is located on the inner surface of the lipid bilayer of cellular membranes. See NPL84. During apoptosis, PS is translocated from the cytoplasmic face of the plasma membrane to the cell surface. Id.
In general terms: In flow cytometry, cells or beads pass a laser one at a time.

Data set [2] deals with human umbilical vein endothelial cells. Put plainly: Apoptosis flow cytometry in vascular endothelial cells. The settings on record: 10 μg/ml, 48 h. In kind it is cell-based. On the procedure:
FIGS. 21C and 21D show a flow cytometry analysis of human umbilical vein endothelial cells after culturing for 48 h in DMEM medium containing 10 μg/ml corisin. Each group had n=4.
as §2

Data set [3] relates to normal human bronchial epithelial (NHBE) cells. In words: Western blotting of cleaved caspase-3 and Akt in NHBE cell lysates. In kind it is cell-based. The method, then: Each treatment group had n=4. A representative blot of each treatment group is shown.
FIGS. 19D and 19E show the intensity of the Western blot membrane bands as quantified by densitometry using Image? software. Each treatment group had n=4. Bars indicate the means ±S.D. Statistical analysis was performed by one-tailed Mann-Whitney U test. *p<0.05.
The cells for Western blot analysis were washed twice with ice-cold phosphate-buffered saline and then lysed in radioimmunoprecipitation assay (RIPA) buffer (10 mM Tris-Cl (pH 8.0), 1 mM EDTA, 1% Triton X-100, 0.1% sodium deoxycholate, 0.1% SDS, 140 mM NaCl, 1 mM phenylmethylsulfonyl fluoride) supplemented with protease/phosphatase inhibitors (1 mM orthovandate, 50 mM β-glycerophosphate, 10 mM sodium pyrophosphate, 5 μg/mL leupeptin, 2 μg/mL aprotinin, 5 mM sodium fluoride). The suspensions were centrifuged (17,000 x g, 10 min at 4° C.), and the protein content was determined using Pierce BCA protein assay kit (Thermo Fisher Scientific Incorporation, Waltham, MA). Equal amounts of cellular lysate protein were mixed with Laemmli sample buffer and separated by SDS-PAGE. […] The intensity of the bands was quantified by densitometry using the public domain NIH imageJ program (Wayne Rasband, NIH, Research Service Branch).
(In general: Immunoblotting shows a protein as a band on a membrane.)

The next data set relates to TGFβ1 TG mice. Put plainly: Intratracheal instillation of corisin in TGFβ1 TG mice with lung fibrosis. In kind it is in vivo, mouse. The settings on record: intratracheal once daily for two days, euthanasia day 3, vs control mice. From the text: To investigate whether corisin can exacerbate the lung fibrotic disease in vivo, we separated TGFβ1 TG mice into three groups with matched level of lung fibrosis (see FIGS. 25A and 25B) and treated them with saline, scrambled peptide or corisin by the intratracheal route once daily for two days before euthanasia on day 3 (see FIG. 6A).
Under profound anesthesia, we collected bronchoalveolar lavage fluid for biochemical analysis and cell counting. Briefly, bronchoalveolar lavage fluid was performed by cannulating the trachea with a 20-gauge needle and infusing saline solutions into the lungs in accordance with NPL68. The samples were centrifuged and the supernatants were stored at −80° C. until analysis. The cell pellets were re-suspended in physiological saline solution and the number of cells was counted. A nucleocounter from ChemoMetec (Allerød, Denmark) was used for cell counting and the cells were stained with May-Grünwald-Giemsa (Merck, Darmstadt, Germany) to count differential cells. Mice were sacrificed by anesthesia overdose, and the lungs were resected to fix in formalin, embedded in paraffin and prepared for hematoxylin and eosin staining. The severity of lung fibrosis was quantitated based on the Ashcroft criteria. See NPL67. The level of TGFβ1 was measured using a commercial enzyme immunoassay kit from BD Biosciences Pharmingen (San Diego, CA).
Three groups of TGFβ1 TG mice (each n=5 or n=4) with matched grade (level) of lung fibrosis as assessed by CT score underwent intratracheal instillation of corisin or scrambled peptide or 0.9% NaCl solution on days 1 and 2 and sacrificed on day 3 to evaluate changes in lung inflammation and fibrosis. WT mice (n=3) without lung fibrosis treated with 0.9% NaCl solution were used as controls.
Staining of terminal deoxynucleotidyl transferase dUTP Nick-End Labeling (TUNEL) was performed at the Biopathology Institute Corporation (Kunisaki, Oita, Japan) by using Alexa Fluor 594 goat anti-rabbit IgG and slow-fade gold-antifade reagent with 4′,6-diamidino-2-phenylindole (DAPI) or by using ApopTag terminal deoxynucleotidyl transferase (Merck Millipore, Burlington, MA), anti-digoxigenin-peroxidase and 3,3′-diaminobenzidine. Quantification of apoptotic areas was performed using the WinROOF software (Mitani Corporation, Tokyo, Japan) and the values were averaged for each individual mouse.

In the next data set the test system is HFL1 lung fibroblasts. Put plainly: Apoptosis flow cytometry in lung fibroblasts. The data set is classed as cell-based. The settings on record: 10 μg/ml, 48 h. On the procedure: FIGS. 21A and 21B show a flow cytometry analysis of HFL1 lung fibroblasts after culturing for 48 h in DMEM medium containing 10 μg/ml corisin. Each had with n=4.
as §2

In data set [4] the test system is normal human bronchial epithelial (NHBE) cells. In words: Apoptosis assay by flow cytometry in normal human bronchial epithelial cells. The data set is classed as cell-based. The note with it: 10 μM, 48 h. On the procedure: More specifically, FIGS. 19A-19B show a flow cytometry analysis of normal human bronchial epithelial (NHBE) cells after culturing for 48 h in DMEM medium containing 10 μM of corisin or of its scrambled sequence. Each treatment group had n=4. Bars indicate the means ±S.D. Statistical analysis by ANOVA with Tukey's test. *p<0.001.
as §1
A549 and NBHE cells (4×10^5 cells/well) were seeded into 12-well plates, cultured to sub-confluency, washed and then cultured in serum free medium containing 10% of each bacterial supernatant for 48 h. Non-inoculated hypersaline medium was used as control. The cells were analyzed for apoptosis by flow cytometry (FACScan, BD Biosciences, Oxford, UK) after staining with fluorescein-labelled annexin V and propidium iodide (FITC Annexin V Apoptosis Detection Kit with PI, Biolegend, San Diego, CA). […]

Another data set relates to human Jurkat T cells. Put plainly: Apoptosis flow cytometry in T cells. In kind it is cell-based. The settings on record: 10 μg/ml, 48 h. On the procedure: FIGS. 21E and 21F show a flow cytometry analysis of human Jurkat T cells after culturing for 48 h in DMEM medium containing 10 μg/ml corisin. Each treatment group had n=4. Bars indicate the means ±S.D. Statistical analysis was performed by ANOVA with Tukey's test.
as §2

Data set [5] deals with A549 alveolar epithelial cells. Put plainly: Transmission electron microscopy of apoptotic cells. The settings on record: 5 μM, 16 h. The data set is classed as cell-based, human. On the procedure: A549 cells (10×10^4 cells/ml) were plated on a collagen-coated 8-well chamber slides (BD Bioscience, San Jose, CA) and cultured until semi-confluent. Cells were serum-starved for 6 h and stimulated with the pro-apoptotic peptide (5 μM) for 16 h. Cells were fixed with 2% fresh formaldehyde and 2.5% glutaraldehyde in 0.1 M sodium cacodylate buffer (pH 7.4) for 2 h at room temperature. After washing with 0.1 M cacodylate buffer (pH 7.4), they were postfixed with 1% OsO4 in the same buffer for 2 h at 4° C. The samples were rinsed with distilled water, stained with 1% aqueous uranyl acetate for 2 h or overnight at room temperature, dehydrated with ethanol and propylene oxide, and embedded in epon (Epon 812 resin, Nakalai). After removal of the cells from the glass, ultra-thin sections (94 nm) were cut, stained with uranyl acetate and Reynolds's lead citrate, and viewed with a transmission electron microscope (JEM-1010, JEOL, Tokyo, Japan).

As to “IIARESNGQLHARNASGAA (listed as Staphylococcus epidermidis) [reference compound]”, the “apoptosis of alveolar epithelial cells” value in data set [1] is “no pro-apoptotic effect”.
Consider “IVMPESGGNPNAVNPAGYR (listed as Staphylococcus warneri) [1 amino acid change from Staphylococcus nepalensis derivative]”, for which, in data set [1] (5 μM peptide, 48 h), the “apoptosis of A549 alveolar epithelial cells” value was “induces apoptosis”.
Take “IVMPESSGNPNAVNPAGYR (listed as Staphylococcus cohnii) [corisin, peptide of 19 amino acid residues, segment of transglycosylase 351 IsaA of Staphylococcus nepalensis strain CNDG]”: the “apoptotic activity on vascular endothelial cell” value in data set [2] is reported as “no apoptotic activity”. In addition, in data set [3], the Akt activation result is recorded as “decreased” and the “cleavage of caspase-3” value is listed as “increased”. In the data set with TGFβ1 TG mice, the “apoptosis of epithelial cells in the lungs” value was “enhanced”; the “collagen deposition in the lungs” value is listed as “increased”; the “concentration of inflammatory cytokines and chemokines in the lungs” value was “increased”; the “infiltration of macrophages, lymphocytes and neutrophils in the lungs” value is recorded as “significantly increased”. The “apoptotic activity on lung fibroblast” value in the data set with HFL1 lung fibroblasts was “no apoptotic activity”. Also, the “apoptosis of normal human bronchial epithelial cells” value in data set [4] is recorded as “significantly enhanced apoptosis”. For the same sequence, the “apoptotic activity on lymphocyte cell line” value in the data set on human Jurkat T cells was “no apoptotic activity”. In data set [1] (5 μM, incubated at 85° C. for 15 min before adding to A549 cells for 48 h), the “pro-apoptotic activity after heating” value is “heat-resistant”. Further, the “apoptosis of alveolar epithelial cells” value in data set [1] is reported as “induces apoptosis of alveolar epithelial cells”. Moreover, the “apoptotic activity compared with equal protein concentrations of supernatant” value in data set [1] (corisin 5 or 10 μg/ml vs supernatant protein 10 or 100 μg/ml, 48 h) is listed as “significantly more potent”. For the same sequence, the “pro-apoptotic effect on A549 cells” value in data set [1] (increasing concentrations of synthetic corisin, 48 h, DMEM) is on record as “recapitulated the pro-apoptotic effect of the staphylococcal isolate supernatant in a dose dependent manner”. For the same sequence, in data set [5], the “apoptotic property by transmission electron micrographs” value is listed as “confirmed the apoptotic property”.
With “NRVYNGPAASPVSEGMPIN (listed as Staphylococcus epidermidis) [scrambled peptide, reference compound]”, in data set [4], the “apoptosis of normal human bronchial epithelial cells” value was “did not”. The “apoptosis of alveolar epithelial cells” value in data set [1] is listed as “not”.
